In patent publication US20240109865A1, “INDAZOLE COMPOUNDS AS KINASE INHIBITORS” (TYRA BIOSCIENCES, INC., priority 2020, published 2024):

Experiments:
Assay in all cases: Kinase assay, binding constants (Kd), kinase-tagged T7 phage, qPCR
FGFR4 = FGFR4 (Homo sapiens (Human), UniProt P22455)
Outline: (§1)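 Kinase-tagged T7 phage (grown in BL21-derived E. coli) competed with test compound for immobilized biotinylated ligand on streptavidin beads. Kds came from an 11-point 3-fold dilution series at 0.9% final DMSO. Bound kinase was eluted with non-biotinylated ligand and quantified by qPCR, with Hill slope fixed at −1.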

FGFR3 = FGFR3 (Homo sapiens (Human), UniProt P22607)
FGFR3, sequence (P22607 23-806): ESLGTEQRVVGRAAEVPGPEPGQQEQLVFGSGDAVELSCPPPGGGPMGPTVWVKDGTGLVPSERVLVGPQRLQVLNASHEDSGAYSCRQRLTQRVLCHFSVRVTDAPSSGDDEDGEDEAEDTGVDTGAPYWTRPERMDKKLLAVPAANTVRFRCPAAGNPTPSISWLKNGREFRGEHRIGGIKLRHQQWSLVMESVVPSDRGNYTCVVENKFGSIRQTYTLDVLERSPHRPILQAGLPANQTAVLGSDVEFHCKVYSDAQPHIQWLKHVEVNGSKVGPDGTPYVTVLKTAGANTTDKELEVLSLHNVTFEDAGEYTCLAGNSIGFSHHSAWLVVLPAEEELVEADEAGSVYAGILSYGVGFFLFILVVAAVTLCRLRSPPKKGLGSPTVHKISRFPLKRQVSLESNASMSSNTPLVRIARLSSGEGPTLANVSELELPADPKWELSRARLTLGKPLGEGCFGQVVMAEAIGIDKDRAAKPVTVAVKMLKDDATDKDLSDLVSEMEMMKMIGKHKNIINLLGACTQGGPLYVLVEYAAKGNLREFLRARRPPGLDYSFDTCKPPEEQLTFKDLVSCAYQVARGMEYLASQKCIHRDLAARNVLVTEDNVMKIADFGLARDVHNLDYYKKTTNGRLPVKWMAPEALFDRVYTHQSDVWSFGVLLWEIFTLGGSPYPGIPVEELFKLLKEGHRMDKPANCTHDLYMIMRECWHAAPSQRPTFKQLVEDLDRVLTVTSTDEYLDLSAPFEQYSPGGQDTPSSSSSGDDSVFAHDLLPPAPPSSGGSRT
Outline: as §1

FGFR1 = FGFR1 (Homo sapiens (Human), UniProt P11362)
FGFR1, sequence (P11362 22-822): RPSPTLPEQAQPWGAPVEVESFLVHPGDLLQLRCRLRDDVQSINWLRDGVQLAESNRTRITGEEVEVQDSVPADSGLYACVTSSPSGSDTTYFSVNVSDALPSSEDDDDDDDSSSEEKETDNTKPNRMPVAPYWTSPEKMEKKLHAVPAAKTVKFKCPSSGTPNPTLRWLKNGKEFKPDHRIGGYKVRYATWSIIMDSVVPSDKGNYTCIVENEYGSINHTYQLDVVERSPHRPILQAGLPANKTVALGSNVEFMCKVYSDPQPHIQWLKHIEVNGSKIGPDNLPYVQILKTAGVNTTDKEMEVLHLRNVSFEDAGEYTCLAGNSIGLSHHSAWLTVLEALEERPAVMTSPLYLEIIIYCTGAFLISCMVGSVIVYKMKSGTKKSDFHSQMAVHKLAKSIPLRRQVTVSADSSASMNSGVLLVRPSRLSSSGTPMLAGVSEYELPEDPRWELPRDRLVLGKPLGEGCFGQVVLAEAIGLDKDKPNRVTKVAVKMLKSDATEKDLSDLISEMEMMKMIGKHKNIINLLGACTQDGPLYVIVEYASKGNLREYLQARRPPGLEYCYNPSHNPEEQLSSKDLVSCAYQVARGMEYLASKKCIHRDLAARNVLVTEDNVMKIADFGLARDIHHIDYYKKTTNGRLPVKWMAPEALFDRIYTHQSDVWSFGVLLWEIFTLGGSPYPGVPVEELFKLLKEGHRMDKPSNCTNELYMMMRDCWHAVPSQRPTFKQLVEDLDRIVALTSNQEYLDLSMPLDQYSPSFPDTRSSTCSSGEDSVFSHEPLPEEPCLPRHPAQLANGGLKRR
Outline: as §1

FGFR3 (V555M) = FGFR3 (V555M) (Homo sapiens (Human), UniProt P22607, V555M); conditions: V555M mutant
FGFR3 (V555M), sequence (P22607 23-806 V555M): as the sequence (P22607 23-806) above, with V533M counted along it
Outline: as §1

FGFR2 = FGFR2 (Homo sapiens (Human), UniProt P21802)
FGFR2, sequence (P21802 22-821): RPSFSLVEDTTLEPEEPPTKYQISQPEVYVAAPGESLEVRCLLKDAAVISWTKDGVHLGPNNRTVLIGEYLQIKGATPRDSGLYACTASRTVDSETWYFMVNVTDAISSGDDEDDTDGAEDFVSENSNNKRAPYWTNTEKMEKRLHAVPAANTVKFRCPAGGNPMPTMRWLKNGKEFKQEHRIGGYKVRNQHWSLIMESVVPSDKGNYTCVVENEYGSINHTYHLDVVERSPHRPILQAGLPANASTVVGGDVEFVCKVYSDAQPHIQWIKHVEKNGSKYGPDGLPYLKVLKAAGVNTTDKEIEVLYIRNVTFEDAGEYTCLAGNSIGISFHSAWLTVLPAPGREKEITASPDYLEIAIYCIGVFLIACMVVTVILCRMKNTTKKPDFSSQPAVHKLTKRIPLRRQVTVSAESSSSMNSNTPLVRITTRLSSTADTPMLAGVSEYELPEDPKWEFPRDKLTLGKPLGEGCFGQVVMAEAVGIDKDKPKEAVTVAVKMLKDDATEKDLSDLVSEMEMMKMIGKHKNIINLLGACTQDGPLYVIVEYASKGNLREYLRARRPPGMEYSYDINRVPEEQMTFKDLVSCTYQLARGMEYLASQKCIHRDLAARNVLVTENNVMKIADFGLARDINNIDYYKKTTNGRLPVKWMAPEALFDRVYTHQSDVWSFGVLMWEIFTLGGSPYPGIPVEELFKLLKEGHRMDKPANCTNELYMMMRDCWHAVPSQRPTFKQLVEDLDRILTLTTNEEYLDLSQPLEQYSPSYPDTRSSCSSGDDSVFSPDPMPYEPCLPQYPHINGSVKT
Outline: as §1

FGFR4, sequence (P22455 22-802): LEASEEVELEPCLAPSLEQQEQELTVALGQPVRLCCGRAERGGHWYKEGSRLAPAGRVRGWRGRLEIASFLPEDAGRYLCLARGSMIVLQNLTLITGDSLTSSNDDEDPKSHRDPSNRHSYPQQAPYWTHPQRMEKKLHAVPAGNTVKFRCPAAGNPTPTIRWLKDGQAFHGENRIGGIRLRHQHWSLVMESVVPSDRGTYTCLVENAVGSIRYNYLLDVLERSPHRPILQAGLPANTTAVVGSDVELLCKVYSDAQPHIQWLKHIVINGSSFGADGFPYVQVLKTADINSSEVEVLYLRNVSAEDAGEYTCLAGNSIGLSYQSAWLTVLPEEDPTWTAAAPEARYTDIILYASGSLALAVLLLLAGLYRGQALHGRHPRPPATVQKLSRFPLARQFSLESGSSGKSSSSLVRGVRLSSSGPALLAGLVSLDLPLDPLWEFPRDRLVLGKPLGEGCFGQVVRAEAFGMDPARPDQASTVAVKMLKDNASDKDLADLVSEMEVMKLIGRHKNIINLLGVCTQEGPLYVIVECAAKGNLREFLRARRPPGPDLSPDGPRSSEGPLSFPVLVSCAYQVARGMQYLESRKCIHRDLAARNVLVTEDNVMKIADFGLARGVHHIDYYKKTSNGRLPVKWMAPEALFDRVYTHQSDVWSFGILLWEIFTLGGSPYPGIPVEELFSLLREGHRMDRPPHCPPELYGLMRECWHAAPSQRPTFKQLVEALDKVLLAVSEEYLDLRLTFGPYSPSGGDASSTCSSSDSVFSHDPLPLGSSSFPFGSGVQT

Compound | Kd (FGFR4) [nM] | Kd (FGFR3) [nM] | Kd (FGFR1) [nM] | Kd (FGFR3 (V555M)) [nM] | Kd (FGFR2) [nM] | Kd (FGFR3 (V555M); given as a number) [nM]
COc1cc2[nH]nc(-c3cnc(N4CCC4)c(F)c3)c2cc1O[C@H](C)c1c(Cl)cncc1Cl [Example 268, (R)-3-(6-(azetidin-1-yl)-5-fluoropyridin-3-yl)-5-(1-(3,5-dichloropyridin-4-yl)ethoxy)-6-methoxy-1H-indazole] | 1 to 20 | 1 to 20 | 20 to 100 | 1 to 20 | 20 to 100 | –
Cc1ncc(Cl)c([C@@H](C)Oc2cc3c(-c4cnc(N5CC6(C5)CN(S(C)(=O)=O)C6)c(F)c4)n[nH]c3cc2F)c1Cl [Example 269, 5-[(1R)-1-(3,5-dichloro-2-methyl-4-pyridyl)ethoxy]-6-fluoro-3-[5-fluoro-6-(2-methylsulfonyl-2,6-diazaspiro[3.3]heptan-6-yl)-3-pyridyl]-1H-indazole] | 1 to 20 | 1 to 20 | 20 to 100 | 1 to 20 | 20 to 100 | –
Cc1ncc(Cl)c([C@@H](C)Oc2cc3c(-c4cnc(N5CC6(C5)CN(S(C)(=O)=O)C6)c(F)c4)n[nH]c3cc2Cl)c1Cl [Example 270, 6-chloro-5-[(1R)-1-(3,5-dichloro-2-methyl-4-pyridyl)ethoxy]-3-[5-fluoro-6-(2-methylsulfonyl-2,6-diazaspiro[3.3]heptan-6-yl)-3-pyridyl]-1H-indazole] | 1 to 20 | 1 to 20 | 20 to 100 | 1 to 20 | 20 to 100 | –
COc1cc2[nH]nc(-c3cnc(N4CC[C@@H]4C)c(F)c3)c2cc1O[C@H](C)c1c(Cl)cncc1Cl [Example 271, 5-((R)-1-(3,5-dichloropyridin-4-yl)ethoxy)-3-(5-fluoro-6-((S)-2-methylazetidin-1-yl)pyridin-3-yl)-6-methoxy-1H-indazole] | 1 to 20 | 1 to 20 | 20 to 100 | 1 to 20 | 20 to 100 | –
C[C@@H]1CCN1c1ncc(-c2n[nH]c3cc(Cl)c(O[C@H](C)c4c(Cl)cncc4Cl)cc23)cc1F [Example 272, 6-chloro-5-((R)-1-(3,5-dichloropyridin-4-yl)ethoxy)-3-(5-fluoro-6-((R)-2-methylazetidin-1-yl)pyridin-3-yl)-1H-indazole] | 20 to 100 | 20 to 100 | > 300 | 20 to 100 | > 300 | –
Cc1cc2[nH]nc(-c3cnc(N4CC5(C4)CN(S(C)(=O)=O)C5)c(F)c3)c2cc1O[C@H](C)c1c(Cl)cnc(C)c1Cl [Example 273, 5-[(1R)-1-(3,5-dichloro-2-methyl-4-pyridyl)ethoxy]-3-[5-fluoro-6-(2-methylsulfonyl-2,6-diazaspiro[3.3]heptan-6-yl)-3-pyridyl]-6-methyl-1H-indazole] | 1 to 20 | 1 to 20 | 20 to 100 | – | 20 to 100 | 1.8
Cc1ncc(Cl)c([C@@H](C)Oc2cc3c(-c4cnc(N5CCC5)c(F)c4)n[nH]c3cc2Cl)c1Cl [Example 274, 3-[6-(azetidin-1-yl)-5-fluoro-3-pyridyl]-6-chloro-5-[(1R)-1-(3,5-dichloro-2-methyl-4-pyridyl)ethoxy]-1H-indazole] | 20 to 100 | 20 to 100 | 100 to 300 | 1 to 20 | 100 to 300 | –
CNC1(C)CN(c2ncc(-c3n[nH]c4cc(Cl)c(O[C@H](C)c5c(Cl)cnc(C)c5Cl)cc34)cc2F)C1 [Example 275, 1-[5-[6-chloro-5-[(1R)-1-(3,5-dichloro-2-methyl-4-pyridyl)ethoxy]-1H-indazol-3-yl]-3-fluoro-2-pyridyl]-N,3-dimethyl-azetidin-3-amine] | 1 to 20 | 1 to 20 | 1 to 20 | 1 to 20 | 20 to 100 | –
C[C@H](Oc1ccc2[nH]nc(-c3cnc(N4CCC4)c(C#N)c3)c2c1)c1c(Cl)cnc(F)c1Cl [Example 283, (S)-2-(azetidin-1-yl)-5-(5-(1-(3,5-dichloro-2-fluoropyridin-4-yl)ethoxy)-1H-indazol-3-yl)nicotinonitrile] | > 300 | > 300 | > 300 | > 300 | > 300 | –
C[C@@H](Oc1ccc2[nH]nc(-c3cnc(N4CC[C@@H](O)C4)c(C#N)c3)c2c1)c1c(Cl)cnc(F)c1Cl [Example 284, 5-(5-((R)-1-(3,5-dichloro-2-fluoropyridin-4-yl)ethoxy)-1H-indazol-3-yl)-2-((R)-3-hydroxypyrrolidin-1-yl)nicotinonitrile] | 20 to 100 | 100 to 300 | > 300 | 20 to 100 | > 300 | –
C[C@@H](Oc1ccc2[nH]nc(-c3cnc(N4CCCC4)c(C#N)c3)c2c1)c1c(Cl)cncc1Cl [Example 285, 5-[5-[(1R)-1-(3,5-dichloro-4-pyridyl)ethoxy]-1H-indazol-3-yl]-2-pyrrolidin-1-yl-pyridine-3-carbonitrile] | 1 to 20 | 100 to 300 | > 300 | 20 to 100 | > 300 | –
C[C@@H](Oc1ccc2[nH]nc(-c3cnc(N4CCC4)c(C#N)c3)c2c1)c1c(Cl)cnc(F)c1Cl [Example 286, (R)-2-(azetidin-1-yl)-5-(5-(1-(3,5-dichloro-2-fluoropyridin-4-yl)ethoxy)-1H-indazol-3-yl)nicotinonitrile] | 100 to 300 | > 300 | > 300 | > 300 | > 300 | –

Continued, values first:

Kd (FGFR4) [nM] | Kd (FGFR3) [nM] | Kd (FGFR1) [nM] | Kd (FGFR3 (V555M)) [nM] | Kd (FGFR2) [nM] | Kd (FGFR3 (V555M); given as a number) [nM] | Compound
20 to 100 | 100 to 300 | > 300 | 100 to 300 | > 300 | – | C[C@@H](Oc1ccc2[nH]nc(-c3cnc(N4CC(O)C4)c(C#N)c3)c2c1)c1c(Cl)cnc(F)c1Cl [Example 287, (R)-5-(5-(1-(3,5-dichloro-2-fluoropyridin-4-yl)ethoxy)-1H-indazol-3-yl)-2-(3-hydroxyazetidin-1-yl)nicotinonitrile]
1 to 20 | 20 to 100 | > 300 | 20 to 100 | > 300 | – | C[C@@H](Oc1ccc2[nH]nc(-c3cnc(N4CC[C@H](O)C4)c(C#N)c3)c2c1)c1c(Cl)cnc(F)c1Cl [Example 288, 5-(5-((R)-1-(3,5-dichloro-2-fluoropyridin-4-yl)ethoxy)-1H-indazol-3-yl)-2-((S)-3-hydroxypyrrolidin-1-yl)nicotinonitrile]
> 300 | > 300 | > 300 | > 300 | > 300 | – | C[C@H](Oc1ccc2[nH]nc(-c3cnc(N4CC(O)C4)c(C#N)c3)c2c1)c1c(Cl)cnc(F)c1Cl [Example 291, (S)-5-(5-(1-(3,5-dichloro-2-fluoropyridin-4-yl)ethoxy)-1H-indazol-3-yl)-2-(3-hydroxyazetidin-1-yl)nicotinonitrile]
100 to 300 | > 300 | > 300 | > 300 | > 300 | – | C[C@@H](Oc1ccc2[nH]nc(-c3cnc(N4CCCC4)c(C#N)c3)c2c1)c1c(Cl)cnc(F)c1Cl [Example 292, (R)-5-(5-(1-(3,5-dichloro-2-fluoropyridin-4-yl)ethoxy)-1H-indazol-3-yl)-2-(pyrrolidin-1-yl)nicotinonitrile]
1 to 20 | 1 to 20 | 20 to 100 | 1 to 20 | 20 to 100 | – | C[C@@H](Oc1ccc2[nH]nc(-c3cnc(N4CC[C@H](O)C4)c(C#N)c3)c2c1)c1c(Cl)cncc1Cl [Example 293, 5-[5-[(1R)-1-(3,5-dichloro-4-pyridyl)ethoxy]-1H-indazol-3-yl]-2-[(3S)-3-hydroxypyrrolidin-1-yl]pyridine-3-carbonitrile]
20 to 100 | 100 to 300 | > 300 | 20 to 100 | > 300 | – | C[C@@H](Oc1ccc2[nH]nc(-c3cnc(N4CC[C@@H](C(C)(C)O)C4)c(C#N)c3)c2c1)c1c(Cl)cncc1Cl [Example 294, 5-[5-[(1R)-1-(3,5-dichloro-4-pyridyl)ethoxy]-1H-indazol-3-yl]-2-[(3R)-3-(1-hydroxy-1-methyl-ethyl)pyrrolidin-1-yl]pyridine-3-carbonitrile]
20 to 100 | > 300 | > 300 | 100 to 300 | > 300 | – | Cc1ncc(Cl)c([C@@H](C)Oc2ccc3[nH]nc(-c4cnc(N5CC(CC(F)(F)F)C5)c(C#N)c4)c3c2)c1Cl [Example 295, 5-[5-[(1R)-1-(3,5-dichloro-2-methyl-4-pyridyl)ethoxy]-1H-indazol-3-yl]-2-[3-(2,2,2-trifluoroethyl)azetidin-1-yl]pyridine-3-carbonitrile]
20 to 100 | > 300 | > 300 | 100 to 300 | > 300 | – | C[C@@H](Oc1ccc2[nH]nc(-c3cnc(N4CC(CC(F)(F)F)C4)c(C#N)c3)c2c1)c1c(Cl)cncc1Cl [Example 296, 5-[5-[(1R)-1-(3,5-dichloro-4-pyridyl)ethoxy]-1H-indazol-3-yl]-2-[3-(2,2,2-trifluoroethyl)azetidin-1-yl]pyridine-3-carbonitrile]
1 to 20 | 1 to 20 | 20 to 100 | 1 to 20 | 100 to 300 | – | C[C@@H](Oc1ccc2[nH]nc(-c3cnc(N4CC[C@@H](O)C4)c(C#N)c3)c2c1)c1c(Cl)cncc1Cl [Example 297, 5-[5-[(1R)-1-(3,5-dichloro-4-pyridyl)ethoxy]-1H-indazol-3-yl]-2-[(3R)-3-hydroxypyrrolidin-1-yl]pyridine-3-carbonitrile]
1 to 20 | 1 to 20 | 20 to 100 | 1 to 20 | 20 to 100 | – | C[C@@H](Oc1ccc2[nH]nc(-c3cnc(N4CCC(O)CC4)c(C#N)c3)c2c1)c1c(Cl)cncc1Cl [Example 298, 5-[5-[(1R)-1-(3,5-dichloro-4-pyridyl)ethoxy]-1H-indazol-3-yl]-2-(4-hydroxy-1-piperidyl)pyridine-3-carbonitrile]
